Data: patent publication US7629313B2, “Immunomodulatory polymeric antigens for treating inflammatory pathologies” (Eli Lilly and Company, priority 2003, dated 2009)

Key:
[1] = system: human monocyte-derived iDC; assay: Uptake of fluorescent polymer by iDCs, confocal microscopy; format: cell-based; conditions: two minutes incubation at 37° C.; labeled Compound 15 50 μg/ml, FITC-dextran 1 mg/ml
Experimental: Oregon-green labeled Compound 15 is prepared as described in PCT International Publication WO 01/79242. Briefly, Oregon-green (Molecular Probes, Eugene, Oreg.)-conjugated Lipid II is included in an MtgA-polymerization reaction at a ratio of 1:4 with unlabeled Lipid 11 to produce a 25% Oregon-green labeled polymer. The polymeric material is purified and treated as previously described. For uptake studies, fluorescent Compound 15 at a final concentration of 50 μg/ml, or Lysine-fixable FITC-conjugated dextran (40 kDa size, Molecular Probes, Eugene, Oreg.) at 1 mg/ml, is incubated with human monocyte-derived iDC prepared as described in Example 5 for two minutes at 37° C. After incubation, extracellular probe is removed by washing the cells four times in ice cold complete DC medium (Example 5). Washed cells are then incubated at 37° C. and staining is stopped at two-minute intervals by washing in 1% paraformaldehyde fix diluted in flow wash solution (which also contains the metabolic poison sodium azide; protocol described in Example 5). Glass slide samples are prepared at each time interval and sealed with clear nail polish. Samples are stored at −20° C. and protected from light until analysis on a Radiance 2100 confocal microscope (BioRad Laboratories, Hercules, Calif.).

[2] = system: human monocyte-derived dendritic cells; assay: Kinetics of fluorescent polymer uptake by iDCs, flow cytometry; format: cell-based; conditions: labeled Compound 15 50 μg/ml, FITC-dextran 1 mg/ml
Experimental: In these experiments, human monocyte-derived dendritic cells are prepared as described in Example 5. Dendritic cells are resuspended at 5×10^5 cells/sample and incubated […] at 37° C. At the start of each time course, cells are incubated with either fluorescent Compound 15 at a final concentration of 50 μg/ml or Lysine-fixable FITC-conjugated dextran (40 kDa size, Molecular Probes, Eugene, Oreg.) at 1 mg/ml. At 0, 2, 10, 20, 30, 40, and 50 minutes after the start of incubation, uptake is stopped by washing the cells with four washes of ice cold flow wash buffer (Example 5). The washed cells are fixed in paraformaldehyde also as described in Example 5. Stained, fixed cells are stored at 4° C. protected from light until analysis using a FC500 flow cytometer (Beckman Coulter, Miami, Fla.). Once cells are correctly gated for forward and side scatter profiles, mean fluorescent intensity of the population is evaluated for 10,000 cells/sample. […] To control for non-specific adhesion of the molecules to the cell surface (which could be read as a positive in this assay), cells are also incubated with fluorescent polymers at 0° C. […] At this temperature, signal from neither the control molecule (FITC-dextran) nor Compound 15 increases over time (FIG. 5).

FITC-Dextran
Intracellular localization of polymer in iDCs (confocal images) [1]: Localization of polymer in endocytic vacuoles
Uptake by DC at 0° C. (cells metabolically inactive) [2]: inhibited
